What follows are molecules tested against T1, histamine H3 receptor (Homo sapiens, UniProt Q9Y5N1) (assay: Histamine H3 functional antagonist assay ([35S]-GTPγS SPA on membranes)). Conditions: hydrochloride salts tested; membrane prepared from cultured H3 cells; averages of a number of experiments; read-out: functional pKi (fpKi), histamine H3 functional antagonism (converted).
T1 construct: expressed in transfected cells; host or cells: CHO K1 cells (pSwitch/pGene GeneSwitch system, mifepristone-induced), clone 3H3; membrane preparation
Assay type: biochemical
Source text: A membrane preparation containing histamine H3 receptors may be prepared in accordance with the following procedures:
(i) Generation of Histamine H3 Cell Line
DNA encoding the human histamine H3 gene (Huvar, A. et al. (1999) Mol. Pharmacol. 55(6), 1101-1107) was cloned into a holding vector, pCDNA3.1 TOPO (InVitrogen) and its cDNA was isolated from this vector by restriction digestion of plasmid DNA with the enzymes BamH1 and Not-1 and ligated into the inducible expression vector pGene (InVitrogen) digested with the same enzymes. The GeneSwitch™ system (a system where in transgene expression is switched off in the absence of an inducer and switched on in the presence of an inducer) was performed as described in U.S. Pat. Nos. 5,364,791; 5,874,534; and 5,935,934. Ligated DNA was transformed into competent DH5α E. coli host bacterial cells and plated onto Luria Broth (LB) agar containing Zeocin™ (an antibiotic which allows the selection of cells expressing the sh ble gene which is present on pGene and pSwitch) at 50 μg ml^−1. Colonies containing the re-ligated plasmid were identified by restriction analysis. DNA for transfection into mammalian cells was prepared from 250 ml cultures of the host bacterium containing the pGeneH3 plasmid and isolated using a DNA preparation kit (Qiagen Midi-Prep) as per manufacturers guidelines (Qiagen).
CHO K1 cells previously transfected with the pSwitch regulatory plasmid (InVitrogen) were seeded at 2×10e6 cells per T75 flask in Complete Medium, containing Hams F12 (GIBCOBRL, Life Technologies) medium supplemented with 10% v/v dialysed foetal bovine serum, L-glutamine, and hygromycin (100 μg ml^−1), 24 hours prior to use. Plasmid DNA was transfected into the cells using Lipofectamine plus according to the manufacturers guidelines (InVitrogen). 48 hours post transfection cells were placed into complete medium supplemented with 500 μg ml^−1 Zeocin™.
10-14 days post selection 10 nM Mifepristone (InVitrogen), was added to the culture medium to induce the expression of the receptor. 18 hours post induction cells were detached from the flask using ethylenediamine tetra-acetic acid (EDTA; 1:5000; InVitrogen), following several washes with phosphate buffered saline pH 7.4 and resuspended in Sorting Medium containing Minimum Essential Medium (MEM), without phenol red, and supplemented with Earles salts and 3% Foetal Clone II (Hyclone). Approximately 1×10e7 cells were examined for receptor expression by staining with a rabbit polyclonal antibody, 4a, raised against the N-terminal domain of the histamine H3 receptor, incubated on ice for 60 minutes, followed by two washes in sorting medium. Receptor bound antibody was detected by incubation of the cells for 60 minutes on ice with a goat anti rabbit antibody, conjugated with Alexa 488 fluorescence marker (Molecular Probes). Following two further washes with Sorting Medium, cells were filtered through a 50 μm Filcon™ (BD Biosciences) and then analysed on a FACS Vantage SE Flow Cytometer fitted with an Automatic Cell Deposition Unit. Control cells were non-induced cells treated in a similar manner. Positively stained cells were sorted as single cells into 96-well plates, containing Complete Medium containing 500 μg ml^−1 Zeocin™ and allowed to expand before reanalysis for receptor expression via antibody and ligand binding studies. One clone, 3H3, was selected for membrane preparation.
(ii) Membrane Preparation from Cultured Cells
All steps of the protocol are carried out at 4° C. and with pre-cooled reagents. The cell pellet is resuspended in 10 volumes of homogenisation buffer (50 mM N-2-hydroxyethylpiperazine-N′-2-ethanesulfonic acid (HEPES), 1 mM ethylenediamine tetra-acetic acid (EDTA), pH 7.4 with KOH), supplemented with 10e-4M leupeptin (acetyl-leucyl-leucyl-arginal; Sigma L2884), 25 μg/ml bacitracin (Sigma B0125), 1 mM phenylmethylsulfonyl fluoride (PMSF) and 2×10e-6M pepstatin A (Sigma). […]

T1 sequence (Q9Y5N1 whole entry): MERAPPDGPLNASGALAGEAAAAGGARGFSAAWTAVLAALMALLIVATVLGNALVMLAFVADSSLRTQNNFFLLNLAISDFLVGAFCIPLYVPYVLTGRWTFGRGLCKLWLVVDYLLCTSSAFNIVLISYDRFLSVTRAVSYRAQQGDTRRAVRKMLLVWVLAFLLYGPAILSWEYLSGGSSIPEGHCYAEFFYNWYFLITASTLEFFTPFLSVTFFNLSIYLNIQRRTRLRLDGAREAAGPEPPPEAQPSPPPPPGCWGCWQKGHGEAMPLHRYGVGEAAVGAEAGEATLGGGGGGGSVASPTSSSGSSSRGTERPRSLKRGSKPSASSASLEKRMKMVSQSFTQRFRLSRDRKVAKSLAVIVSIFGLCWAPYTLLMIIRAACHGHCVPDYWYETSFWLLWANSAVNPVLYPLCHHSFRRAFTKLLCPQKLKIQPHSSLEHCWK

Row | Structure (SMILES) | Ki [nM]
1 | CC(C)N1CCc2cn(-c3ccc(N4CCOC4=O)cc3)nc2CC1 [Example E9, 3-{4-[6-(1-Methylethyl)-5,6,7,8-tetrahydropyrazolo[3,4-d]azepin-2(4H)-yl]phenyl}-1,3-oxazolidin-2-one] | < 1
2 | CC(C)N1CCc2cn(-c3ccc(N4CCN(C)C4=O)cc3)nc2CC1 [Example E10, 1-Methyl-3-{4-[6-(1-methylethyl)-5,6,7,8-tetrahydropyrazolo[3,4-d]azepin-2(4H)-yl]phenyl}-2-imidazolidinone] | < 1
3 | O=C1CCCN1c1ccc(-n2cc3c(n2)CCN(C2CCC2)CC3)cn1 [Example E12, 1-[5-(6-Cyclobutyl-5,6,7,8-tetrahydropyrazolo[3,4-d]azepin-2(4H)-y)-2-pyridinyl]-2-pyrrolidinone] | < 1
4 | O=C1CCCN1c1ccc(-n2cc3c(n2)CCN(C2CCC2)CC3)cc1 [Example E13] | < 0.316
5 | CC(C)N1CCc2cn(-c3ccc(N4CCCC4=O)cc3)nc2CC1 [Example E14, 1-{4-[6-(1-Methylethyl)-5,6,7,8-tetrahydropyrazolo[3,4-d]azepin-2(4H)-yl]phenyl}-2-pyrrolidinone] | < 1
6 | Cc1noc(-c2ccc(-n3cc4c(n3)CCN(C(C)C)CC4)cc2)n1 [Example E15, 6-(1-Methylethyl)-2-[4-(3-methyl-1,2,4-oxadiazol-5-yl)phenyl]-2,4,5,6,7,8-hexahydropyrazolo[3,4-d]azepine] | < 1
7 | CCN1CCc2cn(-c3ccc(N4CCCC4=O)cc3)nc2CC1 [Example E18, 1-[4-(6-Ethyl-5,6,7,8-tetrahydropyrazolo[3,4-d]azepin-2(4H)-yl)phenyl]-2-pyrrolidinone] | < 0.316
8 | CC(C)CN1CCc2cn(-c3ccc(N4CCCC4=O)cc3)nc2CC1 [Example E20] | < 1
9 | O=C1CCCN1c1ccc(-n2cc3c(n2)CCN(C2CCCC2)CC3)cc1 [Example E24, 1-[4-(6-Cyclopentyl-5,6,7,8-tetrahydropyrazolo[3,4-d]azepin-2(4H)-yl)phenyl]-2-pyrrolidinone] | < 1
10 | Cc1noc(-c2ccc(-n3cc4c(n3)CCN(C3CCC3)CC4)cc2)n1 [Example E25, 6-Cyclobutyl-2-[4-(3-methyl-1,2,4-oxadiazol-5-yl)phenyl]-2,4,5,6,7,8-hexahydropyrazolo[3,4-d]azepine] | < 1
11 | Cc1noc(-c2ccc(-n3cc4c(n3)CCN(C3CCCC3)CC4)cc2)n1 [Example E27, 6-Cyclopentyl-2-[4-(3-methyl-1,2,4-oxadiazol-5-yl)phenyl]-2,4,5,6,7,8-hexahydropyrazolo[3,4-d]azepine] | < 1
12 | O=C1OCCN1c1ccc(-n2cc3c(n2)CCN(C2CCCC2)CC3)cc1 [Example E30] | < 1
13 | CN1CCN(c2ccc(-n3cc4c(n3)CCN(C3CCCC3)CC4)cc2)C1=O [Example E31] | < 1
14 | CN1CCN(c2ccc(-n3cc4c(n3)CCN(C3CCC3)CC4)cc2)C1=O [Example E36] | < 0.316
15 | O=C1OCCN1c1ccc(-n2cc3c(n2)CCN(C2CCC2)CC3)cc1 [Example E37, 3-[4-(6-Cyclobutyl-5,6,7,8-tetrahydropyrazolo[3,4-d]azepin-2(4H)-yl)phenyl]-1,3-oxazolidin-2-one] | < 0.316
16 | c1cc(-n2cc3c(n2)CCN(C2CCC2)CC3)ccc1N1CCOCC1 [Example E39, 6-Cyclobutyl-2-[4-(4-morpholinyl)phenyl]-2,4,5,6,7,8-hexahydropyrazolo[3,4-d]azepine] | < 1
17 | CC(C)CN1CCc2cn(-c3ccc(N4CCOC4=O)cc3)nc2CC1 [Example E42] | < 1
18 | Cc1ccc(N2CCC(n3cc4c(n3)CCN(C3CCC3)CC4)CC2)cn1 [Example E44, 6-Cyclobutyl-2-[1-(6-methyl-3-pyridinyl)-4-piperidinyl]-2,4,5,6,7,8-hexahydropyrazolo[3,4-d]azepine] | < 1

Reference: patent US7888347B2, “Pyrazolo [3,4-D]azepine derivatives as histamine H3 antagonists” (Glaxo Group Limited, priority 2005, dated 2011)
